This note sets out measurements from US20230092890A1, “1, 3, 4-Oxadiazole derivative compounds as histone deacetylase 6 inhibitor, and the pharmaceutical composition comprising the same” (Chong Kun Dang Pharmaceutical Corp., priority 2019, published 2023).

The target in test [1] is T1, HDAC6 human recombinant (Homo sapiens, UniProt Q9UBN7).
T1 construct: purchased Calbiochem 382180
T1 sequence (Q9UBN7 1-1215): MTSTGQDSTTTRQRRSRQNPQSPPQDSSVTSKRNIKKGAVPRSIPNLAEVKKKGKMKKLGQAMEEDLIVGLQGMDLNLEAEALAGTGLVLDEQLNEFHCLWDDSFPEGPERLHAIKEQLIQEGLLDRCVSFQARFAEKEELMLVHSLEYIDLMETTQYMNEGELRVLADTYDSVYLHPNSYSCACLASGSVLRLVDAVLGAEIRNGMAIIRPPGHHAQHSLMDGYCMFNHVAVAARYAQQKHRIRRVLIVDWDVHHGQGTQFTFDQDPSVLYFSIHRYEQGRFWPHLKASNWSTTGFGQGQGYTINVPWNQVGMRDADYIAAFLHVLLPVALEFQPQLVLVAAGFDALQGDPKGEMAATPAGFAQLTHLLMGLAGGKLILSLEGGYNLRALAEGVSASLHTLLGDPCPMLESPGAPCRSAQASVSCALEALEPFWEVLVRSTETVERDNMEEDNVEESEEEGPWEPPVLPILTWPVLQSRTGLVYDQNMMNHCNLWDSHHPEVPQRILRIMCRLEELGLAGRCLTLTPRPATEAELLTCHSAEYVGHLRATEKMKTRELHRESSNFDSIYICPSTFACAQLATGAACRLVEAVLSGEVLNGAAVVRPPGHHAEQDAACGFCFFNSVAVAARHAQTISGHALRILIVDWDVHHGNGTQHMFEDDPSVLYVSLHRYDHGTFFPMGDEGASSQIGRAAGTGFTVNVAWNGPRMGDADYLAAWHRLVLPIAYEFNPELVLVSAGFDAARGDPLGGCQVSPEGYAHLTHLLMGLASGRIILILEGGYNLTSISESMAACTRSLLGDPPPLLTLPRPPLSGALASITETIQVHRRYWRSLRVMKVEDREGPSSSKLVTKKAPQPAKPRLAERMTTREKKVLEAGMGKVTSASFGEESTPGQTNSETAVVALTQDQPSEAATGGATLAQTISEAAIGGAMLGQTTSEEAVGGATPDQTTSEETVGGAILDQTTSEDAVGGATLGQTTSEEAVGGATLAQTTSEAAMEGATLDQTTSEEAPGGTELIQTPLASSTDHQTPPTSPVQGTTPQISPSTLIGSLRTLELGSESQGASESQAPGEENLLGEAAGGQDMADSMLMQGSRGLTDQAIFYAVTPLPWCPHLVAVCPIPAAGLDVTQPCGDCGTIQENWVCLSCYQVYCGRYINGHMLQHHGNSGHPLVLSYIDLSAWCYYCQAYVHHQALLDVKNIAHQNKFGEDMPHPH
The test can be described thus: HDAC enzyme activity inhibition (in vitro), HDAC6 assay. The class given is biochemical. Conditions: samples at 0.1, 1, 10, 100 and 1000 nM; 37° C. 60 minutes; fluorescence Ex 390, Em 460; read-out: HDAC6 IC50. In a few lines: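 Fluorescence (Ex 390, Em 460) read after a 37° C, 60 min enzyme reaction and a further 30 min developer step at 37° C. Uses recombinant human HDAC6; HDAC1 arm dosed at 100, 1000, 10000 nM.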

The target of test [2] is T2, HDAC1 (Homo sapiens, UniProt Q13547).
T2 construct: purchased Enzolifesciences BML-AK511
T2 sequence (Q13547 whole entry): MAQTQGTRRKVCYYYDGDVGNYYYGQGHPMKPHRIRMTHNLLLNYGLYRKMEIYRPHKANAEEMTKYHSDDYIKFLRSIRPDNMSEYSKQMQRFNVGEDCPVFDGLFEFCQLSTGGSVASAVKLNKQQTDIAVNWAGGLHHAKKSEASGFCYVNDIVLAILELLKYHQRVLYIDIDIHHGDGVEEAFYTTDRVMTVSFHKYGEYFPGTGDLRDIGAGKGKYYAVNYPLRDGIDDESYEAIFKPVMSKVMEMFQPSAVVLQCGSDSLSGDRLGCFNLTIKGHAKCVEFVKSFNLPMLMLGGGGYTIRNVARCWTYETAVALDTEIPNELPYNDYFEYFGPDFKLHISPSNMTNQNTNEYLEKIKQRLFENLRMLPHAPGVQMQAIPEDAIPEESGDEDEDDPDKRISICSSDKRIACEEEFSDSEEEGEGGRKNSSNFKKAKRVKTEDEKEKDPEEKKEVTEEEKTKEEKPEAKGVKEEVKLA
Nature of the test: HDAC enzyme activity inhibition (in vitro), HDAC1 Fluorimetric Drug Discovery Assay Kit. The class given is biochemical. Conditions: samples at 100, 1000 and 10000 nM; 37° C. 60 minutes; fluorescence Ex 390, Em 460; read-out: HDAC1 IC50. In a few lines: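 Each sample reacted with enzyme for 60 min at 37° C before a 30-min developer step at the same temperature. HDAC1 doses spanned 100 to 10000 nM. Fluorescent signal was read at Ex 390/Em 460.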

In general, IC50 refers to the concentration at which inhibition is half-maximal. As to `O=c1n(Cc2ccc(-c3nnc(C(F)F)o3)cn2)c2cc(F)c(-c3ccncc3)cc2n1[C@@H]1CCN(C2COC2)C1` [Compound 287, (R)-1-((5-(5-(difluoromethyl)-1,3,4-oxadiazole-2-yl)pyridine-2-yl)methyl)-6-fluoro-3-(1-(oxetan-3-yl)pyrrolidine-3-yl)-5-(pyridine-4-yl)-1,3-dihydro-2H-benzo[d]imidazole-2-one], the IC50 is 14 nM in test [1] and above 10000 nM in test [2].
The like results for `O=c1n(Cc2ccc(-c3nnc(C(F)F)o3)cn2)c2cc(F)c(-c3cccc4[nH]ccc34)cc2n1[C@@H]1CCN(C2COC2)C1` [Compound 288, (R)-1-((5-(5-(difluoromethyl)-1,3,4-oxadiazole-2-yl)pyridine-2-yl)methyl)-6-fluoro-5-(1H-indole-4-yl)-3-(1-(oxetan-3-yl)pyrrolidine-3-yl)-1,3-dihydro-2H-benzo[d]imidazole-2-one] were, in that order, 10 nM and above 10000 nM.
The matching figures for `O=c1n(Cc2ccc(-c3nnc(C(F)F)o3)cn2)c2cc(F)c(-c3cccc4[nH]ccc34)cc2n1CC1CCN(C2COC2)CC1` [Compound 289, 1-((5-(5-(difluoromethyl)-1,3,4-oxadiazole-2-yl)pyridine-2-yl)methyl)-6-fluoro-5-(1H-indole-4-yl)-3-((1-(oxetan-3-yl)piperidine-4-yl)methyl)-1,3-dihydro-2H-benzo[d]imidazole-2-one]: 4 nM and above 10000 nM.
The matching figures for `O=c1n(Cc2ccc(-c3nnc(C(F)F)o3)cn2)c2cc(F)c(-c3cccnc3)cc2n1CC1CCN(C2COC2)CC1` [Compound 290, 1-((5-(5-(difluoromethyl)-1,3,4-oxadiazole-2-yl)pyridine-2-yl)methyl)-6-fluoro-3-((1-(oxetan-3-yl)piperidine-4-yl)methyl)-5-(pyridine-3-yl)-1,3-dihydro-2H-benzo[d]imidazole-2-one]: 7 nM and above 10000 nM.
`O=c1n(Cc2ccc(-c3nnc(C(F)F)o3)cn2)c2cc(F)c(-c3ccncc3)cc2n1CC1CCN(C2COC2)CC1` [Compound 291, 1-((5-(5-(difluoromethyl)-1,3,4-oxadiazole-2-yl)pyridine-2-yl)methyl)-6-fluoro-3-((1-(oxetan-3-yl)piperidine-4-yl)methyl)-5-(pyridine-4-yl)-1,3-dihydro-2H-benzo[d]imidazole-2-one]: the results for the IC50 in test [1] and in test [2] were 9 nM and above 10000 nM, respectively.
The like results for `O=c1n(Cc2ccc(-c3nnc(C(F)F)o3)cn2)c2cc(F)c(-c3cn[nH]c3)cc2n1CC1CCN(C2COC2)CC1` [Compound 292, 1-((5-(5-(difluoromethyl)-1,3,4-oxadiazole-2-yl)pyridine-2-yl)methyl)-6-fluoro-3-((1-(oxetan-3-yl)piperidine-4-yl)methyl)-5-(1H-pyrazole-4-yl)-1,3-dihydro-2H-benzo[d]imidazole-2-one] were, in that order, 3 nM and above 10000 nM.
`O=c1n(Cc2ccc(-c3nnc(C(F)F)o3)cn2)c2cc(F)c(-c3cccnc3)cc2n1[C@@H]1CCCN(C2COC2)C1` [Compound 293, (R)-1-((5-(5-(difluoromethyl)-1,3,4-oxadiazole-2-yl)pyridine-2-yl)methyl)-6-fluoro-3-(1-(oxetan-3-yl)piperidine-3-yl)-5-(pyridine-3-yl)-1,3-dihydro-2H-benzo[d]imidazole-2-one]: the IC50 is 8 nM in test [1] and above 10000 nM in test [2].
Consider `O=c1n(Cc2ccc(-c3nnc(C(F)F)o3)cn2)c2cc(F)c(-c3ccncc3)cc2n1[C@@H]1CCCN(C2COC2)C1` [Compound 294, (R)-1-((5-(5-(difluoromethyl)-1,3,4-oxadiazole-2-yl)pyridine-2-yl)methyl)-6-fluoro-3-(1-(oxetan-3-yl)piperidine-3-yl)-5-(pyridine-4-yl)-1,3-dihydro-2H-benzo[d]imidazole-2-one], for which the IC50 in test [1] was 11 nM; in test [2] it was above 10000 nM.
The like results for `O=c1n(Cc2ccc(-c3nnc(C(F)F)o3)cn2)c2cc(F)c(-c3cccc4[nH]ccc34)cc2n1[C@@H]1CCCN(C2COC2)C1` [Compound 295, (R)-1-((5-(5-(difluoromethyl)-1,3,4-oxadiazole-2-yl)pyridine-2-yl)methyl)-6-fluoro-5-(1H-indole-4-yl)-3-(1-(oxetan-3-yl)piperidine-3-yl)-1,3-dihydro-2H-benzo[d]imidazole-2-one] were, in that order, 10 nM and above 10000 nM.
Regarding `O=c1n(Cc2ccc(-c3nnc(C(F)F)o3)cn2)c2cc(F)c(-c3cn[nH]c3)cc2n1[C@@H]1CCCN(C2COC2)C1` [Compound 296, (R)-1-((5-(5-(difluoromethyl)-1,3,4-oxadiazole-2-yl)pyridine-2-yl)methyl)-6-fluoro-3-(1-(oxetan-3-yl)piperidine-3-yl)-5-(1H-pyrazole-4-yl)-1,3-dihydro-2H-benzo[d]imidazole-2-one], the values for the IC50 in test [1] and in test [2] were 5 nM and above 10000 nM, respectively.
The like results for `O=c1n(Cc2ccc(-c3nnc(C(F)F)o3)cn2)c2cc(F)c(-c3cccnc3)cc2n1[C@H]1CCCN(C2COC2)C1` [Compound 297, (S)-1-((5-(5-(difluoromethyl)-1,3,4-oxadiazole-2-yl)pyridine-2-yl)methyl)-6-fluoro-3-(1-(oxetan-3-yl)piperidine-3-yl)-5-(pyridine-3-yl)-1,3-dihydro-2H-benzo[d]imidazole-2-one] were, in that order, 10 nM and above 10000 nM.
Turning to `CCN1CCC[C@H](n2c(=O)n(Cc3ccc(-c4nnc(C(F)F)o4)cn3)c3cc(F)c(-c4cccnc4)cc32)C1` [Compound 298, (S)-1-((5-(5-(difluoromethyl)-1,3,4-oxadiazole-2-yl)pyridine-2-yl)methyl)-3-(1-ethylpiperidine-3-yl)-6-fluoro-5-(pyridine-3-yl)-1,3-dihydro-2H-benzo[d]imidazole-2-one], the figures for the half-inhibitory concentration (IC50) in test [1] and in test [2] were 9 nM and above 10000 nM, respectively.
As for `O=c1n(Cc2ccc(-c3nnc(C(F)F)o3)cn2)c2cc(F)c(-c3ccncc3)cc2n1[C@H]1CCCN(C2COC2)C1` [Compound 299, (S)-1-((5-(5-(difluoromethyl)-1,3,4-oxadiazole-2-yl)pyridine-2-yl)methyl)-6-fluoro-3-(1-(oxetan-3-yl)piperidine-3-yl)-5-(pyridine-4-yl)-1,3-dihydro-2H-benzo[d]imidazole-2-one], the IC50 in test [1] is 13 nM; in test [2], above 10000 nM.
For `CCN1CCC[C@H](n2c(=O)n(Cc3ccc(-c4nnc(C(F)F)o4)cn3)c3cc(F)c(-c4ccncc4)cc32)C1` [Compound 300, (S)-1-((5-(5-(difluoromethyl)-1,3,4-oxadiazole-2-yl)pyridine-2-yl)methyl)-3-(1-ethylpiperidine-3-yl)-6-fluoro-5-(pyridine-4-yl)-1,3-dihydro-2H-benzo[d]imidazole-2-one], the figures for the 50% inhibitory concentration (IC50) in test [1] and in test [2] were 13 nM and above 10000 nM, respectively.
The matching figures for `O=c1n(Cc2ccc(-c3nnc(C(F)F)o3)cn2)c2cc(F)ccc2n1CC1CCN(C2COC2)CC1` [Compound 301, 3-((5-(5-(difluoromethyl)-1,3,4-oxadiazole-2-yl)pyridine-2-yl)methyl)-5-fluoro-1-((1-(oxetan-3-yl)piperidine-4-yl)methyl)-1,3-dihydro-2H-benzo[d]imidazole-2-one]: 29 nM and above 10000 nM.
The like results for `O=c1n(Cc2ccc(-c3nnc(C(F)F)o3)cn2)c2cc(F)ccc2n1C1CN(C2COC2)C1` [Compound 302, 3-((5-(5-(difluoromethyl)-1,3,4-oxadiazole-2-yl)pyridine-2-yl)methyl)-5-fluoro-1-(1-(oxetan-3-yl)azetidine-3-yl)-1,3-dihydro-2H-benzo[d]imidazole-2-one] were, in that order, 38 nM and above 10000 nM.
